Measured values as given in US9597393B2, “Synthetic toll-like receptor-4 (TLR-4) agonist peptides” (AV Therapeutics, Inc., priority 2012, dated 2017).
Entries after “also recorded” stand apart in the source; their conditions may differ. Ends that are not written are not given here.

Assays:
[1] = Immunogenicity of the adjuvant peptide itself in mice; assay type: in vivo; conditions: two groups of 3 mice vaccinated with 25 ng of peptide alone; data not shown
From the text: This significant increase in X-15 specific antibody concentration with RS09 was observed on day 28 (white bar) post vaccination as shown in FIG. 6. […] Thus, while RS01 and RS09 were not immunogenic at the concentration used, RS09 was capable of enhancing production of X-15 specific antibodies.

TLR-4 = biological target: T1, TLR-4 (Homo sapiens, UniProt O00206); experiment: NF-κB activation (SEAP reporter) in HEK-BLUE-4 cells; assay type: cell-based; conditions: peptide 1, 5 and 10 μg/ml
T1 construct: host or cells: HEK-BLUE-4 (transgenic HEK293)
Experimental: FIG. 2—LPS peptide mimics activate NF-κB in HEK-BLUE™-4. LPS peptide mimics were dissolved in endotoxin free water and added to 96-well plates at three concentrations; 1 μg/ml (black bar), 5 μg/ml (gray bar), and 10 μg/ml (white bar). HEK-BLUE™4 were then added to each well at a concentration of 5×10^4 cells per well in complete media. The supernatant was then harvested after 24 h and assayed for alkaline phosphatase secretion indicating activation of NF-κB. NF-κB activation is represented in FIG. 2A for peptides RS01-RS07 and in FIG. 2B for peptides RS08-RS12. LPS was used as a positive control in assaying all peptides for NF-κB activation. Absorbance was taken at 630 nm. Each experiment was repeated three times with similar results observed. The standard deviation shown above each sample represents three replicates in one experiment.
The twelve peptides were assayed for their ability to bind to TLR-4 and activate NF-κB using a transgenic HEK293 cell line known as HEK-BLUE™-4. This cell line is stably transfected to only express TLR-4 on its plasma membrane, with no other TLRs present. Detecting activation of NF-κB is made possible by placing secreted alkaline phosphatase (SEAP) under the control of the NF-κB promoter. Therefore, NF-κB activation leads to SEAP secretion, which is detected by an alkaline phosphatase substrate in cell culture media.
The LPS peptide mimics were dissolved in endotoxin free water (HyClone) at a concentration of 1 μg/ml with the exception of peptide 4 which was dissolved in a solution of 1% DMSO made in endotoxin free water at 1 μg/ml concentration. All of the peptide stock solutions and stored at −80° C. Each of the 12 peptides (RS01-RS12) was added to 96-well plates in triplicate in a total volume of 20 μl. The total volume required in each•well was made up with endotoxin free water (HyClone). […] After a noticeable color change, the absorbance was taken at 630 nm using the microplate reader (Bio-Rad). […]

[2] = Water solubility of peptide stock; assay type: physicochemical; conditions: endotoxin free water; dissolved in 1% DMSO instead
Experimental: The LPS peptide mimics were dissolved in endotoxin free water (HyClone) at a concentration of 1 μg/ml with the exception of peptide 4 which was dissolved in a solution of 1% DMSO made in endotoxin free water at 1 μg/ml concentration. All of the peptide stock solutions and stored at −80° C. Each of the 12 peptides (RS01-RS12) was added to 96-well plates in triplicate in a total volume of 20 μl. The total volume required in each•well was made up with endotoxin free water (HyClone). 5×10^4 HEK-BLUE™-4 cells (Invivogen, San Diego, Calif.) were added per well and incubated for approximately 20 h after which the supernatant from each well was collected and placed into a new 96-well plate. 180 μl of HEK-BLUE™ detection media (Invivogen), alkaline phosphatase detection substrate, was added to each well and incubated for 1-3 h at 37° C. After a noticeable color change, the absorbance was taken at 630 nm using the microplate reader (Bio-Rad).
For all peptides, three concentrations, 1 μg/ml (black bars), 5 μg/ml (gray bars), and 10 μg/ml (white bars) were used to activate HEK-BLUE™-4 cells. LPS (0.1 μg/ml) was used as a positive control.

prostate tumor = conditions: in vivo, administered with an adjuvant; cited from earlier work
NF-κB [3] = experiment: Fluorescence microscopy of NF-κB nuclear translocation in RAW264.7; assay type: cell-based; conditions: 5 μg/ml, 30 min
Experimental: FIG. 4—Fluorescence microscopy of NF-κB nuclear translocation. RAW264.7 macrophages were seeded in 8 well chamber slides at a density of 2×10^4 cells per well and stimulated with 5 μg/ml of either RS01 or RS09. After 30 min incubation, cells were fixed (4% para-formaldehyde), permeabilized (0.2% TRITON® X-100), blocked (10% goat serum/1% BSA), and incubated with anti-NF-κB followed by DAPI staining of nuclei. The stained cells were visualized using the Axiovert 200 M microscope with a 40× magnification. NF-KB (green) was more diffusely spread throughout the cytoplasm in control cells but appeared more circular in RS01, RS09, and LPS treated cells.
HEK-BLUE™-4 and RAW264.7 cells were seeded in 8-chamber slides (BD Biosciences, Bedford, Mass.) at a density of 2×10^4 cells per well. Cells were allowed to adhere at 37° C. over night after which the cells were stimulated with LPS peptide mimics at various time points and subsequently processed for immunofluorescence. The cells were fixed with a 4% paraformaldehyde/PBS solution, followed by permeabilization with 0.2% TRITON® X-100, and blocked using a solution of 0.1% TRITON® X-100, 1% BSA, and 10% goat serum. […]

NF-κB [4] = experiment: NF-κB nuclear translocation Western blot in non-TLR-4 expressing HEK293 (negative control cells); assay type: cell-based; conditions: HEK293 lacking TLR-4
Experimental: FIG. 3—LPS peptide mimics lead to NF-κB nuclear translocation. Nuclear translocation studies of NF-κB were performed by Western blot analysis on both RAW264.7 (FIG. 3A), HEK-BLUE™-4 (FIG. 3B), and HEK293 (FIG. 3C) cells. Cells were stimulated with peptide, either RS01 or RS09, at a concentration of 5 μg/ml per 5×10^4 cells at various time points (15, 30, 60, and 120 min) Nuclear protein fractions were assayed for NF-κB while cytoplasmic proteins fractions were assayed for both NF-κB and IκB-α. HDAC was used as a nuclear protein loading control and actin was used as a cytoplasmic protein loading control.
For NF-KB nuclear translocation western blots, cytoplasmic and nuclear protein extracts were prepared from HEK-BLUE™-4, HEK293, and RAW264.7 cells (2×10^6 cells) using NE-PER, nuclear and cytoplasmic extraction reagent kit (PIERCE, Rockford, Ill.). The manufacturer's protocol was followed to separate cytoplasmic and nuclear fractions. Nuclear and cytoplasmic lysates (10 μg protein) were subjected to 12% SDS-PAGE under reducing conditions (presence of β-mercaptoethanol). […] After four washes with TBST and one wash with TBS, membranes were developed by ECL (Pierce) and detected on HyBlot CL™ autoradiography film (Denville Scientific, Inc, Metuchen, N.J.). […]

RAW264.7 cells = experiment: Inflammatory cytokine secretion from RAW264.7 macrophages (antibody array); assay type: cell-based, mouse; conditions: 24 h
Experimental: FIG. 5—RAW264.7 secretes inflammatory cytokines in response to RS01 and RS09. RAW264.7 cells were seeded at a density of 1×10^6 cells per well of a six well plate followed by addition of either […] (FIG. 5A) or RS09 (FIG. 5B) and incubated for 24 h after which the culture media was collected. LPS was used as a positive control for both RS01 and RS09. Culture media was then analyzed for specific cytokines using an antibody array kit. […] Each cytokine is represented as an IDV value which was calculated by comparing the density of each spot with respect to the density of the internal positive controls. The antibody array represents a qualitative comparison of each cytokine and is […]. Each experiment was repeated three times with similar results observed. […]
RAW264. […] The blots were then developed using ECL (Pierce) and detected on HyBlot CL™ autoradiography film (Denville Scientific). […]
Although the values obtained for each cytokine are not quantitative but rather qualitative, they do show an increase in release of inflammatory cytokines. These values were calculated and presented as IDV, which is the density of each spot compared to the density of the internal positive controls present on each membrane. Values for the various cytokines and chemokines detected are presented in FIG. 5A for RS01 and FIG. 5B for RS09. […]

T1 sequence (O00206 24-839): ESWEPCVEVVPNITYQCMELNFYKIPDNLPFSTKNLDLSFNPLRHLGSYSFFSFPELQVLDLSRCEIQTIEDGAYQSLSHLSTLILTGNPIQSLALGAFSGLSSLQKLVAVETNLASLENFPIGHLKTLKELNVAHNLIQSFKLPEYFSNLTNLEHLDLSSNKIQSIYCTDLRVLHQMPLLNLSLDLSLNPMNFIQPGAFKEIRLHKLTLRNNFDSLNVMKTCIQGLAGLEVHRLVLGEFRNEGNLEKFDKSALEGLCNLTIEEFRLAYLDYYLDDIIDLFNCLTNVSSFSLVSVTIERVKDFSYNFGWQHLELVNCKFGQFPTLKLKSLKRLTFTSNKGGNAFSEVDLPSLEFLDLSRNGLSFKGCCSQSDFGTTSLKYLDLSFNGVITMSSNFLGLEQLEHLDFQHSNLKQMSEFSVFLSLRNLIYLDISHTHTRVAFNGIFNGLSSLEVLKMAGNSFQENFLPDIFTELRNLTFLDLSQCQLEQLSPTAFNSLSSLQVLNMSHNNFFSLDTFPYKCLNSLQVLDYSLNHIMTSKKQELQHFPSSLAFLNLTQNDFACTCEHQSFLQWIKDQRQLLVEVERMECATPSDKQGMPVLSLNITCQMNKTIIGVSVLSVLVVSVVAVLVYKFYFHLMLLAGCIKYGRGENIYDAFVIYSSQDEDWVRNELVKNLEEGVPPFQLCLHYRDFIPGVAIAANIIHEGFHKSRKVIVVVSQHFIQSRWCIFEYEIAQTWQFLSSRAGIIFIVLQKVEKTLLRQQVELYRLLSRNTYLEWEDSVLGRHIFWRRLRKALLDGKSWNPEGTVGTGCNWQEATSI
T1 sequence (Q9Y6Y9 17-160 partner limits assumed): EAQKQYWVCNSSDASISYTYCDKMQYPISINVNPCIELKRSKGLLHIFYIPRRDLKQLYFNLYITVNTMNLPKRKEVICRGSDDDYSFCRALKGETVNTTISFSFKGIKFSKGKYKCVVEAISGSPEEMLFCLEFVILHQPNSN

Substance: APPHALS [RS09, Ala Pro Pro His Ala Leu Ser]
- antibody response to the adjuvant peptide (immunogenicity) [1]: no antibodies were produced

Substance: ELAPDSP [RS12]
- TLR-4 stimulation and NF-κB activation (alkaline phosphatase secretion, absorbance 630 nm) (TLR-4): considered as positive for TLR-4 stimulation and NF-κB activation

Substance: GLQQVLL [RS04, Gly Leu Gln Gln Val Leu Leu]
- water solubility [2]: not water soluble

Substance: GQWQSGDRYWMETST (also: KLH conjugate) [Peptide X-15]
- prostate tumor protective properties (prostate tumor): possess prostate tumor protective properties in vivo

Substance: Lipopolysaccharide [LPS]
- NF-κB nuclear localization (immunofluorescence, DAPI merge) (NF-κB [3]): nuclear localization of NF-κB was observed
- NF-κB nuclear translocation (NF-κB [4]): do not activate the non-TLR-4 expressing HEK293 cells; also recorded: did not result in nuclear translocation
- secretion of inflammatory cytokines and chemokines (IDV, qualitative) (RAW264.7 cells): capable of inducing inflammatory cytokines and chemokines

Substance: QEINSSY [RS01, Gln Glu Ile Asn Ser Ser Tyr]
- antibody response to the adjuvant peptide (immunogenicity) [1]: no antibodies were produced

Substance: SMPNPMV [RS03]
- TLR-4 stimulation and NF-κB activation (alkaline phosphatase secretion, absorbance 630 nm) (TLR-4): considered as TLR-4 stimulating and hence activators of NF-κB

Substance: VVPTPPY [RS11]
- TLR-4 stimulation and NF-κB activation (alkaline phosphatase secretion, absorbance 630 nm) (TLR-4): considered as positive for TLR-4 stimulation and NF-κB activation
